BindingDB's records for doi:10.7270/Q22J699S (Nmmlsc, 2010)

target: Guanine nucleotide-binding protein G(o) subunit alpha (Homo sapiens, UniProt P09471); experiment: modulators of RGS8 binding to Galphao – biochemical, multiplexed bead assay, additional SAR round, SAR follow-up (AID 2827)
Sequence (P09471 whole entry): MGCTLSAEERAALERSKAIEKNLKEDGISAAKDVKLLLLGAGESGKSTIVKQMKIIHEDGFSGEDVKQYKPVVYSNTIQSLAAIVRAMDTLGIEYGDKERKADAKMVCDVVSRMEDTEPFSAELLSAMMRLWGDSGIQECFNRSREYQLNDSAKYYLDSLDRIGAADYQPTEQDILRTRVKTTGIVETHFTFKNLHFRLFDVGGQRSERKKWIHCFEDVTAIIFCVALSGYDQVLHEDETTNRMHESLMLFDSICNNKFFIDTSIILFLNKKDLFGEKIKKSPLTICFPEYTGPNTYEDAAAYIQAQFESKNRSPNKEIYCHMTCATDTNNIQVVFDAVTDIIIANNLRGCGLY

EC50, > 30 µM:
Cc1ccc2c(Cl)c(C(=O)NCCCN3CCOCC3)sc2c1 [KUC103874N]
O=C(NCCCN1CCOCC1)c1sc2cc([N+](=O)[O-])ccc2c1Cl [3-chloranyl-N-(3-morpholin-4-ylpropyl)-6-nitro-1-benzothiophene-2-carboxamide]
O=C(c1sc2cc([N+](=O)[O-])ccc2c1Cl)N1CCNCC1
NC(=O)c1sc2cc([N+](=O)[O-])ccc2c1Cl [KSC-1-100]
O=C(NCCCn1ccnc1)c1sc2cc([N+](=O)[O-])ccc2c1Cl [3-chloro-N-[3-(1-imidazolyl)propyl]-6-nitro-1-benzothiophene-2-carboxamide]
